# According to publication PMC12454871, “Embedding a feruloyl esterase active site into a thermophilic endoxylanase scaffold for the degradation of feruloylated xylans” (Computational and Structural Biotechnology Journal, 2025):
# What was measured:
# Xyn11 [1] = target: T1, Xyn11 (Pseudothermotoga thermarum, UniProt F7YXD6, L292S/K296H, form not given); assay: X-ray crystallography, […] Å; type: binding; details: native xylanase active site (E144/E251); trapped expression inducer
# T1 construct: gene Theth_1636; GH10 single-domain TIM barrel, 342 residues; all rows are the designed double mutant Xyn11m1
# Xyn11 [2] = target: T1, Xyn11; assay: phenol red pH-indicator esterase assay, absorbance […] nm; type: biochemical; details: pH 8.0, 90 °C, 5 mM EPPS, 50 mM NaCl; engineered Ser271-His275-Glu272 esterase site
# T1 sequence (F7YXD6 entry or part of it L292S/K296H, form open): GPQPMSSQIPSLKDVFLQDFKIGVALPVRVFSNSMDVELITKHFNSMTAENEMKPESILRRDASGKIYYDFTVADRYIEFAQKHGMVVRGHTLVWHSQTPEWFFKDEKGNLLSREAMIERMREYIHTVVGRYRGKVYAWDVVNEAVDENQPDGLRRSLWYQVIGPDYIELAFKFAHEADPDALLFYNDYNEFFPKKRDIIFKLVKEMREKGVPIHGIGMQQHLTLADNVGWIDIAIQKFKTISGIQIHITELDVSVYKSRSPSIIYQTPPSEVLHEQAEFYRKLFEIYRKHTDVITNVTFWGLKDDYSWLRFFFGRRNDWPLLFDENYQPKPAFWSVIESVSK
Structure (SMILES),"X-ray crystallography, 2.1 Å (Xyn11 [1])",Km (Xyn11 [2])
CC(C)S[C@@H]1O[C@H](CO)[C@H](O)[C@H](O)[C@H]1O [IPTG],E144 and E251 and includes a trapped IPTG molecule,
COC(=O)/C=C/c1ccc(O)c(OC)c1 [methyl ferulate],,2900 ± 200 µM
